# Test results published in patent US20180228722A1, “UNIT DOSE PACKAGES, COMPOSITIONS, AND TREATMENT REGIMENS TO DELIVER PRO-[…] S[…] KERATIN SURFACES” (ELC Management LLC, priority 2015, published 2018).
# Tests used:
# [1] = test system: human neutrophils; test: Release of Inflammatory Metabolites (PGE2, LTB4) and Inflammatory Metabolite Marker (5-HETE) from PMA/A23187-stimulated neutrophils, LC-MS/MS of supernatants; format: cell-based; conditions: for decrease in Inflammatory Metabolites and Inflammatory Metabolite Markers (aggregate): vs control cells exposed to inflammation precipitating condition; for net decrease in cellular concentration of Inflammatory Metabolites and Inflammatory Metabolite Markers (aggregate): vs control cells subjected only to inflammation precipitating condition; for decrease in cellular concentration of 5-HETE / decrease in cellular concentration of LTB4 / decrease in cellular concentration of PGE2: vs PMA/A23187 control
# Protocol: (§1) Ingredients were tested to assess the ability to promote Pro-Resolution Pathway Stimulators in human neutrophils. The following Inflammatory Metabolites were measured: PGE2 and LTB4. The Inflammatory Metabolite Marker, 5-HETE, was measured. Also measured were the Pro-Resolving Lipid Mediator Markers 15-HETE, 12-HETE, 14-HDOHE, 18-HEPE, and 17-HDOHE. PGE2, LTB4, and 5-HETE are indicators of inflammation. Increases in cellular secretion of PGE2, LTB4, or 5-HETE are seen in response to inflammation precipitating conditions. Active ingredients that cause a reduction in cellular concentration of PGE2, LTB4, or 5-HETE are anti-inflammatory in nature. Cellular secretion of Pro-Resolving Lipid Mediators occurs in the inflammation resolution phase. Active ingredients that stimulate cellular secretion of Pro-Resolving Lipid Mediators (as measured by measuring Pro-Resolving Lipid Mediator Markers) help to promote resolution of inflammation.
# (§2) Then, the inflammatory response was initiated by adding an inflammation precipitating ingredient, in particular PMA/[…] which is a mixture of 5-(methylamino)-2-({2R,3R,6S,8S,9R,11R)-3,9,11-trimethyl-8-[(1S)-1-methyl-2-oxo-2-(1H-pyrrol-2-yl)ethyl]-1,7-dioxaspiro[5.5]undec-2-yl}methyl)-1,3-benzoxazole-4-carboxylic acid and PMA (phorbol myristate acetate), at a concentration of 0.05 μm and 1 μm respectively to each well. After one hour the supernatants were collected and stored at −80° C. until assayed.
# (§3) Cell supernatants were assayed for Inflammatory Metabolites (PGE2, LBT4), Inflammatory Metabolite Markers (5-HETE), and Pro-Resolving Lipid Mediator Markers 15-HETE, 12-HETE, 14-HDOHE, 18-HEPE, and 17-HDOHE. More specifically, analysis was performed by extraction using an Oasis HLB 96-well plate (Waters) according to manufacturer's directions.
# (§4) Suitable Pro-Resolving Activators are ingredients that show an increase in cellular concentration of Pro-Resolving Lipid Mediator Markers 15-HETE, 12-HETE, 14-HDOHE, 18-HEPE, and 17-HDOHE alone or in combination, when cells exposed to an inflammation precipitating condition either before or after exposure to the active.
# [2] = test system: human neutrophils; test: Release of Pro-Resolving Lipid Mediator Markers (15-HETE, 12-HETE, 14-HDOHE, 18-HEPE, 17-HDOHE) from PMA/A23187-stimulated neutrophils, LC-MS/MS of supernatants; format: cell-based
# Protocol: as §1, §2, §3, §4
molecule,measurement,setting,value
Oc1ccc(C=Cc2cc(O)cc(O)c2)cc1 [resveratrol],decrease in Inflammatory Metabolites and Inflammatory Metabolite Markers (aggregate),[1]; 0.1 ug/ml,45%
same,decrease in Inflammatory Metabolites and Inflammatory Metabolite Markers (aggregate),[1]; 1 ug/ml,59%
same,decrease in Inflammatory Metabolites and Inflammatory Metabolite Markers (aggregate),[1]; 10 ug/ml,106%
same,"% change of Pro-Resolving Lipid Mediator Markers, in the aggregate, compared to control",[2]; 0.1 ug/ml,−27%
same,"% change of Pro-Resolving Lipid Mediator Markers, in the aggregate, compared to control",[2]; 1 ug/ml,−16%
same,"% change of Pro-Resolving Lipid Mediator Markers, in the aggregate, compared to control",[2]; 10 ug/ml,−10%
O=C(O)c1ccccc1O [salicylic acid],net decrease in cellular concentration of Inflammatory Metabolites and Inflammatory Metabolite Markers (aggregate),[1]; 0.33 μg/ml (first of range 0.33 to 33 μg/ml),29%
same,decrease in cellular concentration of 5-HETE,[1]; 0.33 μg/ml,15%
same,decrease in cellular concentration of LTB4,[1]; 0.33 μg/ml,1%
same,decrease in cellular concentration of PGE2,[1]; 0.33 μg/ml,19%
same,net decrease in cellular concentration of Inflammatory Metabolites and Inflammatory Metabolite Markers (aggregate),[1]; 3.3 μg/ml (second of range 0.33 to 33 μg/ml),58%
same,decrease in cellular concentration of 5-HETE,[1]; 3.3 μg/ml,20%
same,decrease in cellular concentration of LTB4,[1]; 3.3 μg/ml,12%
same,decrease in cellular concentration of PGE2,[1]; 3.3 μg/ml,28%
same,net decrease in cellular concentration of Inflammatory Metabolites and Inflammatory Metabolite Markers (aggregate),[1]; 33 μg/ml (third of range 0.33 to 33 μg/ml),46%
same,decrease in cellular concentration of 5-HETE,[1]; 33 μg/ml,27%
same,decrease in cellular concentration of LTB4,[1]; 33 μg/ml,17%
same,decrease in cellular concentration of PGE2,[1]; 33 μg/ml,19%
same,change in cellular concentration of Pro-Resolving Lipid Mediators (aggregate),"[2]; 0.33 μg/ml, vs control cells",small increase
same,change in cellular concentration of all Pro-Resolving Lipid Mediator Markers in the aggregate,"[2]; 3.3 μg/ml, vs control cells",decreased
same,change in cellular concentration of Pro-Resolving Lipid Mediator Marker 15-HETE,"[2]; 33 μg/ml, vs control cells",decrease
same,change in cellular concentration of all Pro-Resolving Lipid Mediator Markers in the aggregate,"[2]; 33 μg/ml, vs control cells",decreased
resveratrol salicylate,decrease in cellular concentration of Inflammatory Metabolites and Inflammation Metabolite Markers in the aggregate (better than control),[1]; 0.43 ug/ml,87%
same,decrease in cellular concentration of Inflammatory Metabolites and Inflammation Metabolite Markers in the aggregate (better than control),[1]; 4.3 ug/ml,163%
same,decrease in cellular concentration of Inflammatory Metabolites and Inflammation Metabolite Markers in the aggregate (better than control),[1]; 43 ug/ml,257%
same,"increase in cellular concentration of Pro-Resolving Lipid Mediator Markers, in the aggregate",[2]; 0.43 ug/ml,not being as effective
same,"increase in cellular concentration of Pro-Resolving Lipid Mediator Markers, in the aggregate",[2]; 4.3 ug/ml,4%
same,"increase in cellular concentration of Pro-Resolving Lipid Mediator Markers, in the aggregate",[2]; 43 ug/ml,37%
